The values that follow come from article PMC10013850 (Proceedings of the National Academy of Sciences of the …, 2023).

Series [1] deals with T1, hMfsd2a (Homo sapiens, UniProt Q8NA29).
T1 sequence (Q8NA29 1-530 isoform Q8NA29-2): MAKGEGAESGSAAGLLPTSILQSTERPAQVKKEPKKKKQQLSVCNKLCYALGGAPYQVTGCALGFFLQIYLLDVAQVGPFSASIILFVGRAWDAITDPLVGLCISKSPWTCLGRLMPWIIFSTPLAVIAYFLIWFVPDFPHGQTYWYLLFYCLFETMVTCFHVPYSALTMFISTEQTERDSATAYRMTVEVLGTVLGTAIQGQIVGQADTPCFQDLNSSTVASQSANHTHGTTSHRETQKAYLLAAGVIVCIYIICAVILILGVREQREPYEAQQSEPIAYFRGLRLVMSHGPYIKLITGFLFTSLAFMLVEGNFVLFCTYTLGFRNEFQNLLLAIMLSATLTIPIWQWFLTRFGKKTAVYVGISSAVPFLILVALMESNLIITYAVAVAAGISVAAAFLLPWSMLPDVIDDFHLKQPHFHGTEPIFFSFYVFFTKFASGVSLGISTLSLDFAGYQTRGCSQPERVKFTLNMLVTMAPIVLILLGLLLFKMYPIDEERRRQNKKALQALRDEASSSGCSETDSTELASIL
Briefly: single-cell flow cytometry uptake assay in transfected HEK293 cells. Particulars: read-out: apparent Km; 37 °C, 30 min, serum-free DMEM; labelled compound. A general note: In flow cytometry, cells or beads pass a laser one at a time.

Substrate in series [2]: C[N+](C)(C)CCOP(=O)([O-])OC[C@H](O)COC(=O)CCCCCCCCCCCNc1ccc([N+](=O)[O-])c2nonc12
Briefly: cells, lysate or membranes. Particulars: 37 °C, 30 min, serum-free DMEM, labelled compound.

A word on the Km: it is the concentration of substrate that gives half-maximal velocity. LPC-16:1-NBD: the Km in series [1] came out at 3 µM.

B1: hMfsd2a (Homo sapiens) (protein)
chain: T1 sequence (Q8NA29 1-530 isoform Q8NA29-2)
For the molecule B1, the Km in series [2] is 244 µM.
